Assay results reported in US20200031778A1, “NOVEL 5-SUBSTITUTED IMIDAZOLYLMETHYL DERIVATIVES” (Bayer CropScience Aktiengesellschaft, priority 2016, published 2020).

Assay: Log P by HPLC on reversed phase columns (EEC directive 79/831 Annex V.A8; methods [a], [b], [c])
Type: physicochemical
In short: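 Log P derived from retention times, interpolated linearly between bracketing straight-chain alkan-2-ones (3–16 carbons) of known Log P. Eluents ran acetonitrile 10% to 95% against water with 0.1% formic acid ([a], acidic), 0.001 M ammonium acetate ([b], neutral) or 0.1% phosphoric acid ([c], acidic); UV read-out.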

Compound	LogP	chromatographic logP (HPLC on reversed phase columns, method [a])
N#Cc1cncn1CC(O)(c1ccc(Cl)cc1F)C1(F)CC1 (stereo not shown) [I-356]	2.36^[a]	
N#Cc1cncn1CC(O)(c1ccc(F)cc1Br)C1(F)CC1 (stereo not shown) [I-357]	2.31^[a]	
N#Cc1cncn1CC(O)(c1ccc(Cl)cc1F)C1(Cl)CC1 (stereo not shown) [I-358]	2.57^[a]	
N#Cc1cncn1CC(O)(CCc1ccc(OC(F)(F)F)c(F)c1)C1(Cl)CC1 (stereo not shown) [I-359]	3.31^[a]	
CC(O)(Cn1cncc1C#N)c1cnc(Oc2ccc(Cl)nc2)cc1C(F)(F)F (stereo not shown) [I-360]	2.43^[a]	
N#Cc1cncn1CC(O)(c1ccc(C#CC2CC2)cc1Cl)C1(Cl)CC1 (stereo not shown) [I-361]	3.25^[a]	
CC(O)(Cn1cncc1C#N)c1cnc(Oc2ccc(Br)nc2)cc1C(F)(F)F (stereo not shown) [I-362]	2.58^[a]	
CC(O)(Cn1cncc1F)c1ccc(Oc2ccc(Br)nc2)nc1C(F)(F)F (stereo not shown) [I-363]	1.84^[a]	
CC(O)(Cn1cncc1C#N)c1ccc(Oc2ccc(Br)nc2)nc1C(F)(F)F (stereo not shown) [I-364]	2.44^[a]	
N#Cc1cncn1CC(O)(c1ccc(/C=C/C2CC2)cc1Cl)C1(Cl)CC1 (stereo not shown) [I-365]	3.37^[a]	
C[Si](C)(C)C#Cc1ccc(C(O)(Cn2cncc2C#N)C2(Cl)CC2)c(Cl)c1 (stereo not shown) [I-366]	4.24^[a]	
COc1ccc(C(O)(Cn2cncc2C#N)CC(C)(C)C)c(Cl)c1 (stereo not shown) [I-367]	3.21^[a]	
CC(C)(C)CC(O)(Cn1cncc1C#N)c1cccc(F)c1Cl (stereo not shown) [I-368]	3.15^[a]	
CC(C)(C)CC(O)(Cn1cncc1C#N)c1ccc2occc2c1 (stereo not shown) [I-369]	2.88^[a]	
C#Cc1ccc(C(O)(Cn2cncc2C#N)C2(Cl)CC2)c(Cl)c1 (stereo not shown) [I-370]	2.52^[a]	
N#Cc1cncn1CC(O)(C#Cc1ccccc1)C1(F)CC1 (stereo not shown) [I-371]	2.20^[a]	
CC(C)(C)c1ccc(C#CC(O)(Cn2cncc2C#N)C2(F)CC2)cc1 (stereo not shown) [I-372]	3.39^[a]	
Cc1ccc(C#CC(O)(Cn2cncc2C#N)C2(F)CC2)cc1 (stereo not shown) [I-373]	2.52^[a]	
CC(C)(C)CC(O)(Cn1cncc1C#N)C1(F)CC1 (stereo not shown) [I-374]	2.44^[a]	
C=CC(C)C(O)(Cn1cncc1C#N)C1(F)CC1 (stereo not shown) [I-375]	1.94^[a]	
N#Cc1cncn1CC(O)(c1ccc(Br)cc1Cl)C1(F)CC1 (stereo not shown) [I-376]	2.76^[a]	
Cn1ccc2cc(C(O)(Cn3cncc3C#N)CC(C)(C)C)ccc21 (stereo not shown) [I-377]	2.94^[a]	
CCCC(O)(Cn1cncc1C#N)c1ccc(F)cc1 (stereo not shown) [I-378]	2.21^[a]	
N#Cc1cncn1CC(O)(c1ccc(S(F)(F)(F)(F)F)cc1)C1(F)CC1 (stereo not shown) [I-379]	2.78^[a]	
CC(C)C(O)(Cn1cncc1C#N)C1(F)CC1 (stereo not shown) [I-380]	1.78^[a]	

Compound	LogP	chromatographic logP (HPLC on reversed phase columns, method [a])
N#Cc1cncn1CC(O)(c1ccc(F)cc1C(F)(F)F)C1(F)CC1 (stereo not shown) [I-382]	2.46^[a]	
N#Cc1cncn1CC(O)(c1ccc(C(F)(F)F)cc1Cl)C1(F)CC1 (stereo not shown) [I-383]	2.75^[a]	
N#Cc1cncn1CC(O)(c1ccc(Cl)cc1Br)C1(Cl)CC1 (stereo not shown) [I-384]	2.78^[a]	
CC(C)(C)C(O)(Cn1cncc1C#N)c1ccc(F)cc1F (stereo not shown) [I-385]	2.71^[a]	
N#Cc1cncn1CC(O)(c1ccc(Cl)cc1Br)C1(F)CC1 (stereo not shown) [I-386]	2.66^[a]	
N#Cc1cncn1CC(O)(c1ccc(F)cc1Br)C1(Cl)CC1 (stereo not shown) [I-387]	2.48^[a]	
N#Cc1cncn1CC(O)(c1ccc(C2CC2C2CC2)cc1Cl)C1(F)CC1 (stereo not shown) [I-388]	3.60^[a]	
N#Cc1ccc(C(O)(Cn2cncc2C#N)C2(F)CC2)c(Cl)c1 (stereo not shown) [I-389]	2.04^[a]	
N#Cc1cncn1CC(O)(c1ccc(Oc2ccc(Cl)cc2)cc1Cl)C1(F)CC1 (stereo not shown) [I-390]	3.64^[a]	
N#Cc1cncn1CC(O)(c1ccc(Oc2ccc(Cl)cc2)cc1Cl)C1(Cl)CC1 (stereo not shown) [I-391]	3.78^[a]	
N#Cc1cncn1CC(O)(c1ccc(C2CC2)cc1Cl)C1(F)CC1 (stereo not shown) [I-392]	2.74^[a]	
C/C=C(\C)C(O)(Cn1cncc1C#N)c1ccc(F)cc1F (stereo not shown) [I-396]	2.41^[a]	
C/C=C(\C)C(O)(Cn1cncc1C#N)c1ccc(Cl)cc1F (stereo not shown) [I-397]	2.73^[a]	
N#Cc1cncn1CC(O)(c1ccc(F)cc1Br)C1CC1 (stereo not shown) [I-398]	2.46^[a]	
CCCCCCC(O)(Cn1cncc1C#N)C1(F)CC1 (stereo not shown) [I-399]	3.00^[a]	
CCCC(O)(Cn1cncc1C#N)c1ccc(F)cc1F (stereo not shown) [I-400]	2.39^[a]	
CCCC(O)(Cn1cncc1C#N)c1ccc(Cl)cc1F (stereo not shown) [I-401]	2.78^[a]	
CCCC(O)(Cn1cncc1C#N)c1ccc(F)cc1Cl (stereo not shown) [I-402]	2.73^[a]	
N#Cc1cncn1CC(O)(c1ccc(Br)cc1F)C1(F)CC1 (stereo not shown) [I-403]	2.43^[a]	
N#Cc1cncn1CC(O)(c1ccc(Br)cc1F)C1CC1 (stereo not shown) [I-404]	2.62^[a]	
N#Cc1cncn1CC(O)(c1ccc(Cl)cc1Br)C1CC1 (stereo not shown) [I-405]	2.80^[a]	
N#Cc1cncn1CC(O)(c1ccc(C2CC2)cc1Cl)C1CC1 (stereo not shown) [I-406]	2.92^[a]	
CCCC(O)(Cn1cncc1C#N)c1ccc(C2CC2)cc1Cl (stereo not shown) [I-407]	3.19^[a]	
CCCC(O)(Cn1cncc1C#N)c1ccc(F)cc1Br (stereo not shown) [I-408]	2.75^[a]	
CCCC(O)(Cn1cncc1C#N)c1ccc(Cl)cc1Br (stereo not shown) [I-409]	3.13^[a]	

Compound	LogP	chromatographic logP (HPLC on reversed phase columns, method [a])
N#Cc1cncn1CC(O)(c1ccc(F)cc1F)C1CC1 (stereo not shown) [I-410]	2.18^[a]	
N#Cc1cncn1CC(O)(c1ccc(F)cc1)C1CC1 (stereo not shown) [I-411]	1.98^[a]	
N#Cc1cncn1CC(O)(c1ccc(F)cc1Cl)C1CC1 (stereo not shown) [I-412]	2.41^[a]	
N#Cc1cncn1CC(O)(c1ccc(Cl)cc1F)C1CC1 (stereo not shown) [I-413]	2.50^[a]	
N#Cc1cncn1CC(O)(CC1CC1)c1ccc(F)cc1F (stereo not shown) [I-414]	1.76^[a]	
C[Si](C)(C)C#CCOc1ccc(C(O)(Cn2cncc2C#N)C2(F)CC2)c(F)c1 (stereo not shown) [I-415, 3-[2-(1-fluorocyclopropyl)-2-[2-fluoro-4-(3-trimethylsilylprop-2-ynoxy)phenyl]-2-hydroxy-ethyl]imidazole-4-carbonitrile]		3.68
CC(C)C(O)(Cn1cncc1C#N)c1ccc(Cl)cc1Br (stereo not shown) [I-416]	3.02^[a]	
CC(C)C(O)(Cn1cncc1C#N)c1ccc(Cl)cc1F (stereo not shown) [I-417]	2.68^[a]	
N#Cc1cncn1CC(O)(c1ccc(C(F)(F)F)cc1Cl)C1CC1 (stereo not shown) [I-418]	2.98^[a]	
CC(C)C(O)(Cn1cncc1C#N)c1ccc(F)cc1F (stereo not shown) [I-419]	2.35^[a]	
N#Cc1cncn1CC(O)(c1ccc(Br)cc1Cl)C1CC1 (stereo not shown) [I-420]	2.88^[a]	
CCCC(O)(Cn1cncc1C#N)c1ccc(C(F)(F)F)cc1Cl (stereo not shown) [I-421]	3.23^[a]	
CC(C)C(O)(Cn1cncc1C#N)c1ccc(Br)cc1Cl (stereo not shown) [I-422]	3.02^[a]	
CCCC(O)(Cn1cncc1C#N)c1ccc(Br)cc1Cl (stereo not shown) [I-423]	3.19^[a]	
CC(C)C(O)(Cn1cncc1C#N)c1ccc(F)cc1Br (stereo not shown) [I-424]	2.69^[a]	
CC(C)C(O)(Cn1cncc1C#N)c1ccc(F)cc1Cl (stereo not shown) [I-425]	2.60^[a]	
CC(C)C(O)(Cn1cncc1C#N)c1ccc(C(F)(F)F)cc1Cl (stereo not shown) [I-426]	3.11^[a]	
CCCCCCC(O)(CC1CC1)Cn1cncc1C#N (stereo not shown) [I-427]	3.35^[a]	
N#Cc1cncn1CC(O)(C#CCC1CCCCC1)CC1CC1 (stereo not shown) [I-428]	3.29^[a]	
N#Cc1cncn1CC(O)(CC1CC1)c1ccc(Br)cc1Br (stereo not shown) [I-429]	2.82^[a]	
OC(Cn1cncc1F)(c1ccc(Br)cc1Cl)C1(F)CC1 (stereo not shown) [I-430]	1.76^[a]	
OC(Cn1cncc1F)(c1ccc(Cl)cc1Br)C1(F)CC1 (stereo not shown) [I-431]	1.73^[a]	
N#Cc1cncn1CC(O)(c1ccc(Br)cc1Br)C1(F)CC1 (stereo not shown) [I-433]	2.71^[a]	
N#Cc1cncn1CC(O)(c1c(F)cccc1Cl)C1(F)CC1 (stereo not shown) [I-434]	2.08^[a]	
N#Cc1cncn1CC(O)(c1ccc(C(F)(F)F)cc1Br)C1(F)CC1 (stereo not shown) [I-435]	2.78^[a]	

Compound	LogP	chromatographic logP (HPLC on reversed phase columns, method [a])
N#Cc1cncn1CC(O)(CC1CC1)c1ccc(C(F)(F)F)cc1Br (stereo not shown) [I-436]	2.90^[a]	
OC(Cn1cncc1F)(c1ccc(Cl)cc1F)C1(F)CC1 (stereo not shown) [I-437]	1.57^[a]	
N#Cc1cncn1CC(O)(c1cccc(Cl)c1Cl)C1(F)CC1 (stereo not shown) [I-438]	2.39^[a]	
N#Cc1cncn1CC(O)(c1cc(F)ccc1Cl)C1(F)CC1 (stereo not shown) [I-439]	2.16^[a]	
CC1(C(O)(Cn2cncc2C#N)c2ccc(F)cc2F)CC1 (stereo not shown) [I-440]	2.37^[a]	
CC1(C(O)(Cn2cncc2C#N)c2ccc(Cl)cc2F)CC1 (stereo not shown) [I-441]	2.68^[a]	
N#Cc1cncn1CC(O)(CC1CC1)c1ccc(Cl)cc1F (stereo not shown) [I-442]	2.75^[a]	
N#Cc1cncn1CC(O)(CC1CC1)c1ccc(F)cc1Br (stereo not shown) [I-443]	2.78^[a]	
N#Cc1cncn1CC(O)(c1ccc(F)c(Cl)c1)C1(F)CC1 (stereo not shown) [I-444]	2.39^[a]	
N#Cc1cncn1CC(O)(c1ccc(F)c(F)c1)C1(F)CC1 (stereo not shown) [I-445]	2.17^[a]	
N#Cc1cncn1CC(O)(c1ccc(Cl)c(F)c1)C1(F)CC1 (stereo not shown) [I-446]	2.44^[a]	
N#Cc1cncn1CC(O)(c1ccc(F)cc1F)C1CCC1 (stereo not shown) [I-447]	2.53^[a]	
N#Cc1cncn1CC(O)(c1ccc(Cl)cc1F)C1CCC1 (stereo not shown) [I-448]	2.86^[a]	
N#Cc1cncn1CC(O)(c1ccc(F)cc1Br)C1CCC1 (stereo not shown) [I-449]	2.86^[a]	
CC1(C(O)(Cn2cncc2C#N)c2ccc(F)cc2)CC1 (stereo not shown) [I-450]	2.19^[a]	
CC(C)CC#CC(O)(CC1CC1)Cn1cncc1C#N (stereo not shown) [I-451]	2.52^[a]	
N#Cc1cncn1CC(O)(C#CC1CCCC1)CC1CC1 (stereo not shown) [I-452]	2.62^[a]	
N#Cc1cncn1CC(O)(C#CC1CCCC1)C1(F)CC1 (stereo not shown) [I-453]	2.30^[a]	
C[Si](C)(C)C#CC(O)(CC1CC1)Cn1cncc1C#N (stereo not shown) [I-454]	2.70^[a]	
CC(C)(C)C(O)(Cn1cncc1C#N)c1ccc(F)c(Cl)c1 (stereo not shown) [I-455]	2.90^[a]	
CC(C)(C)C(O)(Cn1cncc1C#N)c1ccc(Cl)c(Cl)c1 (stereo not shown) [I-456]	3.16^[a]	
CC(C)(C)C(O)(Cn1cncc1C#N)c1cc(F)cc(F)c1 (stereo not shown) [I-457]	2.64^[a]	
